# Measurements taken from US10456407B2, “Combination therapy for treating cancer” (Epizyme, Inc., priority 2015, dated 2019).
# System: WSU-DLCL2 cells
# Assay: RT2 Glucocorticoid signaling PCR array, WSU-DLCL2 (WSU) cell line (Table 4c)
# Format: cell-based
smiles,measurement,setting,value
CCN(c1cc(-c2ccc(CN3CCOCC3)cc2)cc(C(=O)NCc2c(C)cc(C)[nH]c2=O)c1C)C1CCOCC1 [Compound 44],"Ct Values, MERTK",gene MERTK,31.323
same,"ΔCT (B2M), MERTK",gene MERTK,11.638
same,"Ct Values, MT2A",gene MT2A,23.499
same,"ΔCT (B2M), MT2A",gene MT2A,3.814
same,"ΔΔCT, MT2A","gene MT2A, compared to DMSO",−1.453
same,"Ct Values, NFKBIA",gene NFKBIA,23.807
same,"ΔCT (B2M), NFKBIA",gene NFKBIA,4.122
same,"ΔΔCT, NFKBIA","gene NFKBIA, compared to DMSO",1.201
same,"Ct Values, NR3C1",gene NR3C1,23.121
same,"ΔCT (B2M), NR3C1",gene NR3C1,3.436
same,"ΔΔCT, NR3C1","gene NR3C1, compared to DMSO",−0.364
same,"Ct Values, PDCD7",gene PDCD7,24.740
same,"ΔCT (B2M), PDCD7",gene PDCD7,5.055
same,"ΔΔCT, PDCD7","gene PDCD7, compared to DMSO",0.326
same,"Ct Values, PDP1",gene PDP1,25.226
same,"ΔCT (B2M), PDP1",gene PDP1,5.541
same,"ΔΔCT, PDP1","gene PDP1, compared to DMSO",−0.380
same,"Ct Values, PER1",gene PER1,25.820
same,"ΔCT (B2M), PER1",gene PER1,6.135
same,"ΔΔCT, PER1","gene PER1, compared to DMSO",0.476
same,"Ct Values, PER2",gene PER2,24.837
same,"ΔCT (B2M), PER2",gene PER2,5.152
same,"ΔΔCT, PER2","gene PER2, compared to DMSO",0.151
same,"Ct Values, PIK3R1",gene PIK3R1,24.332
same,"ΔCT (B2M), PIK3R1",gene PIK3R1,4.647
same,"ΔΔCT, PIK3R1","gene PIK3R1, compared to DMSO",0.363
same,"Ct Values, PLEKHF1",gene PLEKHF1,28.660
same,"ΔCT (B2M), PLEKHF1",gene PLEKHF1,8.975
same,"ΔΔCT, PLEKHF1","gene PLEKHF1, compared to DMSO",1.220
same,"Ct Values, POU2F1",gene POU2F1,24.671
same,"ΔCT (B2M), POU2F1",gene POU2F1,4.986
same,"ΔΔCT, POU2F1","gene POU2F1, compared to DMSO",0.202
same,"Ct Values, POU2F2",gene POU2F2,22.678
same,"ΔCT (B2M), POU2F2",gene POU2F2,2.993
same,"ΔΔCT, POU2F2","gene POU2F2, compared to DMSO",−0.680
same,"Ct Values, RASA3",gene RASA3,23.208
same,"ΔCT (B2M), RASA3",gene RASA3,3.523
same,"ΔΔCT, RASA3","gene RASA3, compared to DMSO",−0.979
same,"Ct Values, RGS2",gene RGS2,24.869
same,"ΔCT (B2M), RGS2",gene RGS2,5.184
same,"ΔΔCT, RGS2","gene RGS2, compared to DMSO",1.732
same,"Ct Values, RHO8",gene RHO8,27.234
same,"ΔCT (B2M), RHO8",gene RHO8,7.549
same,"ΔΔCT, RHO8","gene RHO8, compared to DMSO",−2.725
same,"Ct Values, RPLP0",gene RPLP0,15.651
same,"ΔCT (B2M), RPLP0",gene RPLP0,−4.004
same,"Ct Values, SESN1",gene SESN1,25.215
same,"ΔCT (B2M), SESN1",gene SESN1,5.530
same,"ΔΔCT, SESN1","gene SESN1, compared to DMSO",−3.709
same,"Ct Values, SGK1",gene SGK1,28.624
same,"ΔCT (B2M), SGK1",gene SGK1,8.939
same,"ΔΔCT, SGK1","gene SGK1, compared to DMSO",2.810
same,"Ct Values, SLC10A6",gene SLC10A6,35.684
same,"ΔCT (B2M), SLC10A6",gene SLC10A6,15.999
same,"ΔΔCT, SLC10A6","gene SLC10A6, compared to DMSO",−1.168
same,"Ct Values, SLC19A2",gene SLC19A2,26.125
same,"ΔCT (B2M), SLC19A2",gene SLC19A2,6.440
same,"ΔΔCT, SLC19A2","gene SLC19A2, compared to DMSO",−0.748
same,"Ct Values, SLC22A5",gene SLC22A5,26.640
same,"ΔCT (B2M), SLC22A5",gene SLC22A5,6.995
same,"ΔΔCT, SLC22A5","gene SLC22A5, compared to DMSO",−2.496
same,"Ct Values, SNTA1",gene SNTA1,24.181
same,"ΔCT (B2M), SNTA1",gene SNTA1,4.496
same,"ΔΔCT, SNTA1","gene SNTA1, compared to DMSO",−0.492
same,"Ct Values, SPHK1",gene SPHK1,29.333
same,"ΔCT (B2M), SPHK1",gene SPHK1,9.648
same,"ΔΔCT, SPHK1","gene SPHK1, compared to DMSO",−0.545
same,"Ct Values, SPSB1",gene SPSB1,26.952
same,"ΔCT (B2M), SPSB1",gene SPSB1,7.267
same,"ΔΔCT, SPSB1","gene SPSB1, compared to DMSO",−2.896
same,"Ct Values, STAT5A",gene STAT5A,25.495
same,"ΔCT (B2M), STAT5A",gene STAT5A,5.810
same,"ΔΔCT, STAT5A","gene STAT5A, compared to DMSO",−0.307
same,"Ct Values, STAT5B",gene STAT5B,23.453
same,"ΔCT (B2M), STAT5B",gene STAT5B,3.768
same,"ΔΔCT, STAT5B","gene STAT5B, compared to DMSO",−0.196
same,"Ct Values, TBL1XR1",gene TBL1XR1,22.111
same,"ΔCT (B2M), TBL1XR1",gene TBL1XR1,2.426
same,"ΔΔCT, TBL1XR1","gene TBL1XR1, compared to DMSO",0.274
same,"Ct Values, TNF",gene TNF,25.079
same,"ΔCT (B2M), TNF",gene TNF,5.394
same,"ΔΔCT, TNF","gene TNF, compared to DMSO",1.150
same,"Ct Values, TNFAIP3",gene TNFAIP3,26.903
same,"ΔCT (B2M), TNFAIP3",gene TNFAIP3,7.218
same,"ΔΔCT, TNFAIP3","gene TNFAIP3, compared to DMSO",1.722
same,"Ct Values, TSC22D3",gene TSC22D3,25.390
same,"ΔCT (B2M), TSC22D3",gene TSC22D3,5.705
same,"ΔΔCT, TSC22D3","gene TSC22D3, compared to DMSO",−0.359
same,"Ct Values, USP2",gene USP2,21.903
same,"ΔCT (B2M), USP2",gene USP2,2.218
same,"ΔΔCT, USP2","gene USP2, compared to DMSO",−0.978
same,"Ct Values, USPS4",gene USPS4,26.807
same,"ΔCT (B2M), USPS4",gene USPS4,7.122
same,"ΔΔCT, USPS4","gene USPS4, compared to DMSO",0.023
same,"Ct Values, VDR",gene VDR,27.293
same,"ΔCT (B2M), VDR",gene VDR,7.608
same,"ΔΔCT, VDR","gene VDR, compared to DMSO",−3.044
same,"Ct Values, VLDLR",gene VLDLR,32.346
same,"ΔCT (B2M), VLDLR",gene VLDLR,12.661
same,"ΔΔCT, VLDLR","gene VLDLR, compared to DMSO",3.859
same,"Ct Values, ZFP36",gene ZFP36,25.541
same,"ΔCT (B2M), ZFP36",gene ZFP36,5.856
same,"ΔΔCT, ZFP36","gene ZFP36, compared to DMSO",0.939
same,"Ct Values, ZHX3",gene ZHX3,24.831
same,"ΔCT (B2M), ZHX3",gene ZHX3,5.146
same,"ΔΔCT, ZHX3","gene ZHX3, compared to DMSO",−1.178
same,"Ct Values, ZNF281",gene ZNF281,23.913
same,"ΔCT (B2M), ZNF281",gene ZNF281,4.228
same,"ΔΔCT, ZNF281","gene ZNF281, compared to DMSO",−0.329
